Columns and labels:
[1] = tested on: global H3K4 dimethylation; assay: Western blot of H3K4 dimethylation in breast cancer cells; type: cell-based; conditions: 10 and or 30 μM, 24 h
Procedure: Protein lysates were extracted from cells and blotted as described in Schulte et al. [Schulte, J. H. et al. (2009), see above] The membranes were incubated for 1-2 hours using the following antibodies and dilutions: α-LSD1 (Novus Biologicals) 1:1000; α-K4H3me2 (Abcam, Cambridge, UK) 1:1000; β-actin (Sigma-Aldrich, Hamburg, Germany) 1:5000; Her2/erbB2 (DAKO), 1:1000. […] Anal. Biochem., 295, 17-21].

[2] = tested on: liposarcoma cell lines FU-DDLS-1, MLS1765, T449, T778, MLS402, SW872; assay: MTT cell growth assay, liposarcoma cell lines; conditions: six liposarcoma cell lines, 72 h
[3] = tested on: synovial sarcoma cell lines SYO-1, HS-SY-II, 1273/99, Fuji and CME-1; assay: MTT cell growth assay, synovial sarcoma cell lines; conditions: five synovial sarcoma cell lines, 72 h
[4] = tested on: MCF7, MDA-MB 453, MDA-MB 231 and T47D breast cancer cells; assay: MTT cell growth assay, breast cancer cell lines; type: cell-based; conditions: four breast cancer cell lines, treatment for 72 hours
Procedure: (§1) MCF7, MDA-MB 453 and MDA-MB 231 breast cancer cells were cultivated in DMEM, T47D breast cancer cells were cultivated in RPMI, GLC-1, GLC-2 and H460 R lung carcinoma cells were cultivated in IMDM, and sarcoma cells 1273 were cultivated in Häm's F12. All media were supplemented with 10% FCS, L-glutamine and antibiotics.
(§2) An 3-([…])-2,5-diphenyltetrazolium bromide (MTT) assay was performed according to the manufacturer's protocol (Roche, Mannheim, Germany).

sarcoma cells 1273 = conditions: sarcoma cell line 1273, 72 hours
Procedure: as §1, §2

[5] = tested on: GLC-1, GLC-2 and H460 R lung carcinoma cells; conditions: three lung carcinoma cell lines, 72 hours
Procedure: as §1, §2

LSD1 protein = LSD1 protein (Homo sapiens, UniProt O60341); conditions: breast cancer cells, 10 and or 30 μM, 24 h
Procedure: The membranes were incubated for 1-2 hours using the following antibodies and dilutions: α-LSD1 (Novus Biologicals) 1:1000; α-K4H3me2 (Abcam, Cambridge, UK) 1:1000; β-actin (Sigma-Aldrich, Hamburg, Germany) 1:5000; Her2/erbB2 (DAKO), 1:1000.

SMILES	global H3K4 dimethylation (Western blot) [1]	cell growth (MTT assay, viable cells) [2]	cell growth (MTT assay, viable cells) [3]	cell growth (MTT assay, viable cells) [4]	cell growth (MTT assay, % viability) (sarcoma cells 1273)	cell growth (MTT assay, viable cells) [5]	LSD1 protein levels (Western blot) (LSD1 protein)
N[C@@H]1C[C@H]1c1ccccc1 (racemic) [tranylcypromine]	accumulation of H3K4 dimethylation	impaired cell growth in these sarcoma cell lines in a concentration dependent manner	impaired cell growth in these sarcoma cell lines in a concentration dependent manner	impaired cell growth in a dose-dependent manner	impaired cell growth	impaired cell growth	
C#CCN(C)CCCOc1ccc(Cl)cc1Cl [clorgyline]	accumulation of H3K4 dimethylation	impaired cell growth in these sarcoma cell lines in a concentration dependent manner	impaired cell growth in these sarcoma cell lines in a concentration dependent manner	impaired cell growth in a dose-dependent manner			not affected
C#CCN(C)Cc1ccccc1 [pargyline]		impaired cell growth in these sarcoma cell lines in a concentration dependent manner	impaired cell growth in these sarcoma cell lines in a concentration dependent manner				
